The results in this text go back to patent publication US20180243421A1, “IMMUNOSTIMULATING AGENT” (AJINOMOTO CO., INC., priority 2015, published 2018).

For experiment [1], the system named is anti-OVA-specific IgG1 subclass antibody. The experiment in a line: Adjuvant activity after primary immunization: anti-OVA-specific IgG1 subclass antibody in serum (Examples 13-18). The format is in vivo, BALB/c mice. The following applies: OVA 5 μg + 0.256 μmol in 5% αCD saline s.c., serum after 12 days. The protocol:
8-Week-old female BALB/c mice were divided into groups (N=6), and each group was primarily immunized by dorsal-subcutaneous administration of (1) ovalbumin (OVA) (5 μg) dissolved in saline as an antigen (OVA single administration group), (2) OVA (5 μg) and SZ83 (0.256 μmol) dissolved or dispersed in 5% αCD-added saline (SZ83 administration group), (3) OVA (5 μg) and SZ84 (0.256 μmol) dissolved or dispersed in 5% αCD-added saline (SZ84 administration group), (4) OVA (5 μg) and SZ86 (0.256 μmol) dissolved or dispersed in 5% αCD-added saline (SZ86 administration group), (5) OVA (5 μg) and SZ89 (0.256 μmol) dissolved or dispersed in 5% αCD-added saline (SZ89 administration group), (6) OVA (5 μg) and SZ90 (0.256 μmol) dissolved or dispersed in 5% αCD-added saline (SZ90 administration group), each per mouse. After 12 days, blood samples were collected under anesthesia, and the obtained serum samples were subjected to the measurement of an anti-OVA-specific IgG1 subclass antibody.
Measurement Method of Concentration of anti-OVA-specific IgG1 Subclass Antibody and anti-OVA-specific IgG2a Subclass Antibody
To a 96 well plate was added 5 μg/ml OVA at 100 μl/well, and the mixture was incubated at 4° C. overnight. After incubation, the mixture was washed three times with 200 μl of PBS-T (PBS+0.05% (v/v) Tween 20) per well, and blocked with 100 μl of 5% FCS/PBS solution per well at room temperature for 1 to for 2 hr. Thereafter, the mixture was washed three times with PBS-T (200 μl/well), a diluted serum sample (100 μl/well) or the same amount of 5% FCS/PBS solution as a control was added, to and the mixture was incubated at 37° C. for 1 hr. To calculate concentration of the antibody, the standard of an anti-OVA-specific IgG1 subclass antibody diluted with 2% FCS/PBS solution was added at 100 ng/ml, 50 ng/ml, 25 ng/ml, 12.5 ng/ml, 6.25 ng/ml, 3.125 ng/ml, 1.56 ng/ml, 0.781 ng/ml, 0.391 ng/ml, 0.195 ng/ml, 0.098 ng/ml, 0 ng/ml, per 1 well. When an anti-OVA-specific IgG2a subclass antibody was measured, the standard of an anti-OVA-specific IgG2a subclass antibody was added at 50 ng/ml, 25 ng/ml, 12,5 ng/ml, 6.25 ng/ml, 3.125 ng/ml, 1.56 ng/ml, 0.781 ng/ml, 0.391 ng/ml, 0.195 ng/ml, 0.098 ng/ml, 0.049 ng/ml, 0 ng/ml, per 1 well. […] Thereafter, the mixture was washed five times with PBS-T (200 μl/well), a diluted anti-biotin-HRP antibody was added (100 μl/well), and the mixture was incubated at 37° C. for another 30 min. Thereafter, the mixture was washed five times with PBS-T (200 μl/well), TMB substrate solution was added (100 μl/well), and the mixture was incubated at room temperature for 10- for 15 min. Thereafter, a reaction quenching liquid (2N sulfuric acid solution) was added (50 μl/well) to discontinue a color developing reaction, and the absorbance (OD Value=450 nm) was measured by a microplate reader. A standard curve was drawn from the measured OD values, and the concentration was calculated.
8-Week-old female BALB/c mice were divided into groups (N=6), and each group was primarily immunized by dorsal-subcutaneous administration of (1) ovalbumin (OVA) (5 μg) dissolved in saline as an antigen (OVA single administration group), (2) OVA (5 μg) and SZ92 (0.256 μmol) dissolved or dispersed in 5% αCD-added saline (SZ92 administration group), (3) OVA (5 μg) and SZ94 (0.256 μmol) dissolved or dispersed in 5% αCD-added saline (SZ94 administration group), (4) OVA (5 μg) and SZ95 (0.256 μmol) dissolved or dispersed in 5% αCD-added saline (SZ95 administration group), (5) OVA (5 μg) and SZ96 (0.256 μmol) dissolved or dispersed in 5% αCD-added saline (SZ96 administration group), each per mouse. After 12 days, blood samples were collected under anesthesia, and the obtained serum samples were subjected to the measurement of anti-OVA-specific IgG1 subclass antibody.

Experiment [2] concerns anti-influenza IgA antibody. The experiment in a line: Transnasal influenza vaccine adjuvant activity: anti-influenza IgA antibody in nasal cavity wash. The format is in vivo, BALB/c mice. As to conditions: Example 4, influenza HA vaccine 20 μl, SZ62 1 μg, Poly(I:C) 5 μg, two weeks from secondary immunization.

As for `CCCCCCCCCCCCCCCCCCCCCC(=O)N[C@@H](CCCNC(=N)N)C(=O)OCCCCCC.Cl` [SZ121, N^2-docosanoyl-L-arginine hexyl ester hydrochloride salt], the “anti-OVA-specific IgG1 subclass antibody production after primary immunization as compared to the OVA single administration group” value in experiment [1] (Example 17) is reported as “significantly increased”.

Regarding `CCCCCCCCCCCCCCCCCCCCCC(=O)N[C@@H](CC(C)C)C(=O)OCCCCCC` [SZ124, N-docosanoyl-L-leucine hexyl ester], in experiment [1] (Example 17), the “anti-OVA-specific IgG1 subclass antibody production after primary immunization as compared to the OVA single administration group” value is reported as “tended to increase”.

As to `CCCCCCCCCCCCCCCCCCCCCC(=O)N[C@@H](CC(C)C)C(=O)N(CC)CC` [SZ125, N^2-docosanoyl-N^1,N^1-diethyl-L-leucinamide], the “anti-OVA-specific IgG1 subclass antibody production after primary immunization as compared to the OVA single administration group” value in experiment [1] (Example 17) was “tended to increase”.

For `CCCCCCCCCCCCCCCCCCCCCC(=O)N[C@@H](CCCNC(=N)N)C(N)=O.Cl` [SZ128, N^2-docosanoyl-L-arginine amide hydrochloride salt], the “anti-OVA-specific IgG1 subclass antibody production after primary immunization as compared to the OVA single administration group” value in experiment [1] (Example 18) is “significantly increased”.

For `CCCCCCCCCCCCCCCCCCCCCC(=O)N[C@@H](CCCNC(=N)N)C(=O)N(CC)CC.Cl` [SZ129, N^2-docosanoyl-N^1,N^1-diethyl-L-arginine amide hydrochloride salt], the “anti-OVA-specific IgG1 subclass antibody production after primary immunization as compared to the OVA single administration group” value in experiment [1] (Example 18) was “significantly increased”.

Regarding `CCCCCCOC(=O)[C@H](CCCNC(=N)N)NC(=O)CCCCC.Cl` [SZ130, N^2-hexanoyl-L-arginine hexyl ester hydrochloride salt], the “anti-OVA-specific IgG1 subclass antibody production after primary immunization as compared to the OVA single administration group” value in experiment [1] (Example 18) is given as “tended to increase”.

In the case of `CCCCCCCCCCCCCCCC(=O)N[C@@H](CCC(=O)O)C(=O)OCCCCCC` [SZ134, N-hexadecanoyl-L-glutamic acid hexyl ester], the “anti-OVA-specific IgG1 subclass antibody production after primary immunization as compared to the OVA single administration group” value in experiment [1] (Example 18) is “tended to increase”.

Turning to `CCCCCCCCCCCCCCCCCCCCCC(=O)N[C@@H](CCC(=O)O)C(=O)OCCCCCC` [SZ135, N-docosanoyl-L-glutamic acid hexyl ester], the “anti-OVA-specific IgG1 subclass antibody production after primary immunization as compared to the OVA single administration group” value in experiment [1] (Example 18) is “tended to increase”.

Take “polyinosinic polycytidylic acid [Poly(I:C), reference compound]”: the “anti-influenza IgA antibody production in nasal cavity wash as compared to the influenza vaccine single administration group” value in experiment [2] is “a significant increase was not found”.
